Experimental data taken from PMC6154319, “Intestinal Transport Characteristics and Metabolism of C-Glucosyl Dihydrochalcone, Aspalathin” (Molecules : A Journal of Synthetic Chemistry and Natural …, 2017).
Read-outs that look alike come from different tables or passages of the source. Marks after values point to notes of the source that are not given here.

How the values were obtained:
[1] = Kinetic solubility assay (miniaturised shake flask); assay type: physicochemical; details: 2 h, 25 °C, 2% DMSO
Method: The kinetic solubility assay was performed using a miniaturised shake flask method. A 10 mM stock solution of aspalathin was used to prepare calibration standards (10–220 µM) in dimethyl sulphoxide (DMSO), and to spike (1:50) duplicate aqueous samples of phosphate buffered saline (pH 6.5), 0.01 M HCl (pH 2), and FaSSIF (pH 6.5), with a final DMSO concentration of 2%. After shaking for 2 h at 25 °C, the solutions were filtered (multiscreen filter plates, 0.45 µm low-binding, hydrophilic polytetrafluoroethylene (PTFE), Merck) and analysed by means of HPLC-DAD (Agilent 1200 Rapid Resolution HPLC; Agilent Technologies, Inc., Santa Clara, CA, USA). Best fit calibration curves were constructed using the calibration standards, which were used to determine the solubility of the aqueous samples [43].

SGLT1 = target: T1, SGLT1 (Homo sapiens, UniProt P13866); details: aspalathin 100 µM; 100 µM phloridzin (SGLT1)
T1 sequence (P13866 1-664): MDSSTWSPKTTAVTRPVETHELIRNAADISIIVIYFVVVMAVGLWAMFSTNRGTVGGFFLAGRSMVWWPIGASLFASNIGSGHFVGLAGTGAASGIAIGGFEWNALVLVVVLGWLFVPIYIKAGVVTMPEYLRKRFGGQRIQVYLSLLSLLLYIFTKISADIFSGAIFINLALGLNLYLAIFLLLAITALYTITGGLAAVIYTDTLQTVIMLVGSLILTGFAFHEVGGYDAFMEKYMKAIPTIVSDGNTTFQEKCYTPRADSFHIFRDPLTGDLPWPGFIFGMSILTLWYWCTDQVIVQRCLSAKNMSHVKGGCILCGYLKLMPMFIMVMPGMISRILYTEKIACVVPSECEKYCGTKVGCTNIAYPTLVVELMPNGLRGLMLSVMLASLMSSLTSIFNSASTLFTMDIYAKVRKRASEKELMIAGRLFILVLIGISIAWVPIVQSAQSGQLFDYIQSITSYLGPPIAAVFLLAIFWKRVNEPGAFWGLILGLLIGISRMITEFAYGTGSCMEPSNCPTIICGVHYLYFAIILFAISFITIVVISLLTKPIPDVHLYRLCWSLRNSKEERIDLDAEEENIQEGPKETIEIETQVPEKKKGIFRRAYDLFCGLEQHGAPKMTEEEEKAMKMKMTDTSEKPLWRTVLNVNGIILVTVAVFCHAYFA
Method: The cell monolayers were equilibrated briefly with transport buffer, pH 6.0 (HBSS with 2-(N-morpholino) ethanesulphonic acid (MES)) on the apical side and pH 7.4 (HBSS with HEPES) on the basolateral side, to remove traces of the culture media. Following this, transport buffers were added for 30 min prior to the addition of treatment (inhibitors were added during this step when required, as well as during the subsequent treatment incubation step). After equilibration, the plates containing transport medium were incubated for 30 min at 37 °C at 5% CO2 in 95% humidified air and the TEER value of the monolayer determined. […] For basolateral-to-apical compartment studies, 2.4 mL of treatment at the same concentrations in HBSS (pH 7.4), was added to the basolateral compartment.
To assess whether aspalathin was co-transported with glucose, its transport (100 µM) at both high (20.5 mM) and low (5.5 mM) glucose concentrations, mimicking the intestinal lumen glucose concentrations pre- and post-meals, was monitored. This was followed by experiments performed in the presence and absence of SGLT1 (100 µM phloridzin), GLUT2 (100 µM phloretin) and efflux, PgP (100 µM verapamil) inhibitors.
Samples (1.2 mL) were withdrawn from the basolateral or the apical compartment to measure the concentration of aspalathin uptake and efflux, respectively at 0, 0.5, 1, 1.5, and 2 h under sink conditions (the sample aliquot replaced with equal volume of relevant transport buffer). Sample aliquots (350 µL) were frozen in liquid nitrogen after the addition of ascorbic acid (35 µL of 10% solution) and stored at −65 °C until HPLC analysis. Results were corrected for dilution and expressed as cumulative transport (% of initial dose) as a function of time. Papp (cm/s) for bi-directional transport studies was calculated as previously described. Transport of other major flavonoids in the matrices, i.e., nothofagin, the 3-deoxy analogue of aspalathin and its flavone derivatives, orientin and isoorientin, were also determined.

Caco-2 cells = assay: Cytotoxicity of aspalathin on Caco-2 cells (Vialight plus kit); assay type: cell-based, human; details: HBSS buffer pH 6.0, apical side; 2 h exposure
Text: Supplementary material for:
Intestinal Transport Characteristics and Metabolism of C-Glucosyl Dihydrochalcone, Aspalathin
Sandra Bowles 1,*, Elizabeth Joubert 2,3, Dalene de Beer 2,3, Johan Louw 1,4, Christel Brunschwig 5,6,7, Mathew Njoroge 5,6,7, Nina Lawrence 6, Lubbe Wiesner 7, Kelly Chibale 5,6,8,9, and Christo […]
1 Biomedical Research and Innovation Platform, South African Medical Research Council, Tygerberg, Cape Town, 7130, South Africa; johan.louw@mrc.ac.za (J.L.); christo.muller@mrc.ac.za (C.M.) 2 Plant Bioactives Group, Post-Harvest and Wine Technology Division, Agricultural Research Council, Infruitec-Nietvoorbij, Stellenbosch 7600, South Africa; JoubertL@arc.agric.za (E.J.); DBeerD@arc.agric.za […]
3 Department of Food Science, Stellenbosch University, Stellenbosch 7600, South Africa 4 Department of Biochemistry and Microbiology, University of Zululand, Kwa-Dlangezwa 3886, South […]
Caco-2 cells was assessed by the VialightTM plus kit. Caco-2 cells were seeded at a density of 4 x 10^4 cells/cm2 into white clear bottomed 96-well plates and cytotoxicity was assessed according to the manufacturer’s recommendation after 12–13 days. […]

intestinal epithelium = system: intestinal epithelium; design: method as in earlier work; details: ref 37 Huang et al., cited from earlier work

O=C(CCc1ccc(O)c(O)c1)c1c(O)cc(O)c([C@@H]2O[C@H](CO)[C@@H](O)[C@H](O)[C@H]2O)c1O [Aspalathin]
Kinetic solubility at pH 2 ([1]; 0.01 M HCl (pH 2)): 153 µM | Kinetic solubility in FaSSIF at pH 6.5 ([1]; FaSSIF (pH 6.5)): 119 µM | Kinetic solubility at pH 6.5 ([1]; phosphate buffered saline (pH 6.5)): 123 µM | Efflux Ratio + Inhibitor (phloridzin) (SGLT1): 0.99 ^c | Papp a-b + Inhibitor (phloridzin) (SGLT1): 1.47 ± 1.10 ^c ×10^−6 cm/s | Papp b-a + Inhibitor (phloridzin) (SGLT1): 1.47 ± 0.9 ^c ×10^−6 cm/s | maximum concentration not cytotoxic to Caco-2 cells (>80% viability) (Caco-2 cells): 150 µM | transport of aspalathin (Papp) (intestinal epithelium; equal concentration of pure aspalathin): 2.48 ± 0.03 × 10^−6 cm/s | transport of aspalathin (Papp) (intestinal epithelium; from a green rooibos extract solution): 3.49 ± 1.45 × 10^−6 cm/s
